# According to paper PMC12589487, “Molecular basis of vitamin K-dependent protein γ-glutamyl carboxylation” (Cell Research, 2025):
# Key:
# GGCX•FIX complex [1] = target: T1, GGCX•FIX complex (Homo sapiens, UniProt P38435); assay: cryo-EM structure, […] Å; format: binding
# T1 construct: GGCX co-expressed with full-length FIX in HEK293F cells, cryo-EM in detergent micelle; FIX propeptide and GLA domain (residues 29-92) resolved; WT and K217A/K218A GGCX; with Coagulation factor IX
# GGCX^AA•FX complex = target: T2, GGCX^AA•FX complex (Homo sapiens, UniProt P38435, K217A/K218A); assay: cryo-EM structure, […] Å; format: binding; conditions: catalytically inactive GGCX double mutant
# T2 construct: GGCX K217A/K218A double mutant in complex with FX, cryo-EM; with Coagulation factor X
# GGCX•FIX complex [2] = target: T3, GGCX•FIX complex (Homo sapiens, UniProt P38435, K217A/K218A); assay: cryo-EM structure, […] Å; format: binding; conditions: catalytically inactive GGCX double mutant
# T3 construct: GGCX co-expressed with full-length FIX in HEK293F cells, cryo-EM in detergent micelle; FIX propeptide and GLA domain (residues 29-92) resolved; WT and K217A/K218A GGCX; with Coagulation factor IX
# GGCX [3] = target: T4, GGCX (Homo sapiens, UniProt P38435); assay: binding assay, method not told in main text (Fig. S9); conditions: homologue not told in main text
# T4 construct: Flag-tagged GGCX used in pull-downs
# T4 sequence (P38435 2-758): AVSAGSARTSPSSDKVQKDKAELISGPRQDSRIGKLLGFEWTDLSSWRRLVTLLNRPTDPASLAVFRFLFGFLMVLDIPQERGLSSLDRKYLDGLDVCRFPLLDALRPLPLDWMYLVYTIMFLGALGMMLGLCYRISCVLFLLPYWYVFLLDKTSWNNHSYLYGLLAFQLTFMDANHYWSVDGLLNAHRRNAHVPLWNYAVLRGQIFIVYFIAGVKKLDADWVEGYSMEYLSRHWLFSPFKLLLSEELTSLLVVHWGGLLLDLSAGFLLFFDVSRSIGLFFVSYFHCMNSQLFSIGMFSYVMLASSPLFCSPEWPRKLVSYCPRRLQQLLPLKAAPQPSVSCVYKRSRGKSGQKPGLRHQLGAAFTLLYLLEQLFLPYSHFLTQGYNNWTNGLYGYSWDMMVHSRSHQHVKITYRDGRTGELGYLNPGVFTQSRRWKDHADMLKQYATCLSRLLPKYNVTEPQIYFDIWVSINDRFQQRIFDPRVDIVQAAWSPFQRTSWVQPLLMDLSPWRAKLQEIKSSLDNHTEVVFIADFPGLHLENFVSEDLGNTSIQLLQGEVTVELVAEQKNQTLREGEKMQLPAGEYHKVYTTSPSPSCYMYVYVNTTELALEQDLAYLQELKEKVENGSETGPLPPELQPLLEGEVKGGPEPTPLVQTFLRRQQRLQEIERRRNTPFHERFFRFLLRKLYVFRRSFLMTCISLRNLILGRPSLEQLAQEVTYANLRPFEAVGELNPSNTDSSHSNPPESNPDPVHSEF
# GGCX [4] = target: T4, GGCX; assay: binding assay, method not told in main text (Fig. S8); conditions: form and homologue of vitamin K not told in main text
# T1 sequence (P38435 whole entry, the tested form may be a part): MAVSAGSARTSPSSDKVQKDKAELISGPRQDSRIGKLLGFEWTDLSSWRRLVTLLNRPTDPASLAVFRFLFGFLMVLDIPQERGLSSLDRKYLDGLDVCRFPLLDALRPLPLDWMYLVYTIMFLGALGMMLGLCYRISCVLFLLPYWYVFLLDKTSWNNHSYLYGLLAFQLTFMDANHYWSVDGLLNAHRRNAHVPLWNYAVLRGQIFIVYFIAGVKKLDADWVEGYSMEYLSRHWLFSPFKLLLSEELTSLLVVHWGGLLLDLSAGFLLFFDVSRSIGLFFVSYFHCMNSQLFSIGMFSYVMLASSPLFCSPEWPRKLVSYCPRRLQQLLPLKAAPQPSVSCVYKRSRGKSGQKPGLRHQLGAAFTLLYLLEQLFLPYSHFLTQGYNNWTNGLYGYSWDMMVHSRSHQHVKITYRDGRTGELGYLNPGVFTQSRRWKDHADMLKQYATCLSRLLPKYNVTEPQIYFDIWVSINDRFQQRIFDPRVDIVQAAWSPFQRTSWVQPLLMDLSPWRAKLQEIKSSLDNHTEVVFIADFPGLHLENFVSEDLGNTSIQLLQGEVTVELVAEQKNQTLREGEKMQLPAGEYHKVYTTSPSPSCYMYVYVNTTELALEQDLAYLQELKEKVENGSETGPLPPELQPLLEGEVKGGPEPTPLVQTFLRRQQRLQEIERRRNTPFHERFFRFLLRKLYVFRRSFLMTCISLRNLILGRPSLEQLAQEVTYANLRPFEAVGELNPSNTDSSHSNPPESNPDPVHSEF
# T1 sequence (P00740 29-461 partner): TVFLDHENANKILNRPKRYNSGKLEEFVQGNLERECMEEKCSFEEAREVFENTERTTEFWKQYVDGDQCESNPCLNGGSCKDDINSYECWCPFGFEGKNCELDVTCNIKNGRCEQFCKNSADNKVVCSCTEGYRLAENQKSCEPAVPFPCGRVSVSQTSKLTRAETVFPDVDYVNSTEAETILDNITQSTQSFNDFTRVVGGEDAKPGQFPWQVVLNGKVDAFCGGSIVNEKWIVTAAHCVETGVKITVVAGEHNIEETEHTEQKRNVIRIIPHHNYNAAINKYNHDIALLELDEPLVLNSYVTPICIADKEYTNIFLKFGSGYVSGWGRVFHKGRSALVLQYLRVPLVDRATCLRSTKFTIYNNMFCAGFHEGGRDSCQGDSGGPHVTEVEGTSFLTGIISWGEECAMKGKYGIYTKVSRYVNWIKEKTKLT
# T2 sequence (P38435 whole entry K217A/K218A): as the sequence (P38435 whole entry, the tested form may be a part) above, with K217A, K218A counted along it
# T2 sequence (P00742 32-488 partner limits assumed): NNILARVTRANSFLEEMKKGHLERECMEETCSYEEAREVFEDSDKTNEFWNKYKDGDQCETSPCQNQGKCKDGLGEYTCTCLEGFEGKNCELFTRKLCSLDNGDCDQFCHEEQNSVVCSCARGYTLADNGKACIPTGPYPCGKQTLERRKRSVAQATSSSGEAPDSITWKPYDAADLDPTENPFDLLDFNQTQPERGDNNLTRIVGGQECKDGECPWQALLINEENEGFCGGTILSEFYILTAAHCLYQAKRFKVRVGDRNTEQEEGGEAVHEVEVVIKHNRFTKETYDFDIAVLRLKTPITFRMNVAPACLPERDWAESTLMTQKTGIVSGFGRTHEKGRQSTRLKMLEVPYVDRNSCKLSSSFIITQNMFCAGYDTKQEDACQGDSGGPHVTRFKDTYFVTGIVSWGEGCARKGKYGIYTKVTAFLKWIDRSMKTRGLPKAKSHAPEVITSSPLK
# T3 sequence (P38435 whole entry K217A/K218A, the tested form may be a part): as the sequence (P38435 whole entry, the tested form may be a part) above, with K217A, K218A counted along it
# T3 sequence (P00740 29-461 partner): as the sequence (P00740 29-461 partner) above
compound,measurement,setting,value
CC(C)=CCC/C(C)=C/CC/C(C)=C/CC/C(C)=C/Cc1c(C)c(O)c2ccccc2c1O [MKH2-4],"cryo-EM structure, 2.78 Å","GGCX•FIX complex [1]; co-purified endogenous vitamin K, MK-4 by LC-MS/MS, ligand modelled by superposition with the K217A/K218A complex",Superimposing GGCX^WT•FIX onto GGCX^AA•FIX facilitated modeling of MKH2-4 into the WT binding pocket
same,"cryo-EM structure, 2.58 Å",GGCX^AA•FX complex,unambiguous assignment of the bound molecule as MK-4 hydroquinone (MKH2-4)
same,"cryo-EM structure, 2.59 Å",GGCX•FIX complex [2],unambiguous assignment of the bound molecule as MK-4 hydroquinone (MKH2-4)
CC(C)CCC[C@@H](C)[C@H]1CC[C@H]2[C@@H]3CC=C4C[C@@H](O)CC[C@]4(C)[C@H]3CC[C@]12C [cholesterol],"cryo-EM structure, 2.78 Å","GGCX•FIX complex [1]; co-purified lipid, which deposited model holds it is not told explicitly",A well-resolved co-purified cholesterol was also observed
VKO,Kd,GGCX [3],~8.19 µM
vitamin K,Kd,GGCX [4],~0.85 µM
